# Laboratory results taken from patent US9556165B2 (priority 2012, dated 2017).
# Assays:
# Format in all cases: cell-based
# P. aeruginosa PAO1 = test: MIC determination, broth microdilution (CLSI); conditions: for MIC: Pseudomonas aeruginosa, PAO1, strain 6
# M. catarrhalis ICB489 = test: MIC determination, broth microdilution (CLSI); conditions: for MIC: Moraxella catarrhalis, ICB489, strain 12
# strain 20 = test: MIC determination, broth microdilution (CLSI)
# [1] = test system: P. aeruginosa 2297-con (AmpC derepressed); test: MIC determination, broth microdilution (CLSI); conditions: for MIC: Pseudomonas aeruginosa, read-out: strain 8 MIC, strain 8
# E. coli J62-TEM-3 = test: MIC determination, broth microdilution (CLSI); conditions: for MIC: Escherichia coli, J62TEM3, read-out: strain 18 MIC, strain 18
# H. influenzae ATCC 49247 = test: MIC determination, broth microdilution (CLSI); conditions: for MIC: Haemophilus influenzae, ATCC49247, strain 13, read-out: strain 13 MIC
# A. baumannii ATCC15308 = test: MIC determination, broth microdilution (CLSI); conditions: for MIC: Acinetobacter baumannii, ATCC15308, strain 9
# S. aureus 133 = test: MIC determination, broth microdilution (CLSI); conditions: for MIC: Staphylococcus aureus, 133, strain 11, read-out: strain 11 MIC
# C. freundii K21/3034 = test: MIC determination, broth microdilution (CLSI); conditions: for MIC: Citrobacter freundii, K21/3034, strain 4
# strain 21 = test: MIC determination, broth microdilution (CLSI)
# E. coli J62 = test: MIC determination, broth microdilution (CLSI); conditions: for MIC: Escherichia coli, J62, strain 17, read-out: strain 17 MIC
# E. coli ATCC25922 = test: MIC determination, broth microdilution (CLSI); conditions: for MIC: Escherichia coli, ATCC25922, strain 1
# C. perfringens DSM756 = test: microbe, parasite or virus in culture; conditions: for MIC: Clostridium perfringens, DSM756, read-out: strain 16 MIC, strain 16
# [2] = test system: P. aeruginosa 2297 (AmpC wt); test: MIC determination, broth microdilution (CLSI); conditions: for MIC: Pseudomonas aeruginosa, strain 7
# strain 19 = test: MIC determination, broth microdilution (CLSI)
# K. pneumoniae 60 = test: MIC determination, broth microdilution (CLSI); conditions: for MIC: Klebsiella pneumoniae, 60, strain 2
# E. cloacae 34654 = test: MIC determination, broth microdilution (CLSI); conditions: for MIC: Enterobacter cloacae, 34654, strain 3
# M. morganii 126/3048 = test: MIC determination, broth microdilution (CLSI); conditions: for MIC: Morganella morganii, 126/3048, strain 5
# S. maltophilia ICB7569 = test: MIC determination, broth microdilution (CLSI); conditions: for MIC: Stenotrophomonas maltophilia, ICB7569, strain 10
# B. fragilis 6688 = test: MIC determination, broth microdilution (CLSI); conditions: for MIC: Bacteroides fragilis, 6688, strain 15, read-out: strain 15 MIC
# S. pneumoniae 113 = test: MIC determination, broth microdilution (CLSI); conditions: Streptococcus pneumoniae, 113, strain 14; read-out: strain 14 MIC
Compound,strain 6 MIC (P. aeruginosa PAO1),strain 12 MIC (M. catarrhalis ICB489),strain 20 MIC (strain 20),MIC [1],MIC (E. coli J62-TEM-3),MIC (A. baumannii ATCC15308),strain 4 MIC (C. freundii K21/3034),strain 21 MIC (strain 21),strain 17 MIC (E. coli J62),strain 1 MIC (E. coli ATCC25922),strain 16 MIC (C. perfringens DSM756),strain 7 MIC [2],strain 19 MIC (strain 19),strain 2 MIC (K. pneumoniae 60),strain 3 MIC (E. cloacae 34654),strain 5 MIC (M. morganii 126/3048),MIC (B. fragilis 6688),MIC (H. influenzae ATCC 49247),MIC (S. aureus 133),MIC (S. maltophilia ICB7569),also measured
"CC1(C)[C@H](NC(=O)/C(=N\OC(COc2ccc(C(=N)N)c(O)c2)C(=O)O)c2csc(N)n2)C(=O)N1OS(=O)(=O)O (mixture of isomers) [Example 34A, (2S and 2R)-2-({[(1Z)-1-(2-Amino-1,3-thiazol-4-yl)-2-{[(3S)-2,2-dimethyl-4-oxo-1-(sulfo-oxy)azetidin-3-yl]amino}-2-oxoethylidene]amino}oxy)-3-(4-carbamimidoyl-3-hydroxyphenoxy)propanoic acid]",8 µg/mL,≦0.063 mg/L,0.5 µg/mL,16 µg/mL,32 µg/mL,32 µg/mL,1 µg/mL,0.5 µg/mL,1 µg/mL,1 µg/mL,2 µg/mL,8 µg/mL,0.5 µg/mL,1 µg/mL,0.5 µg/mL,0.25 µg/mL,16 µg/mL,–,–,–,strain 13 MIC (H. influenzae ATCC 49247): 0.5 µg/mL; strain 11 MIC (S. aureus 133): ≦0.063 mg/L; strain 10 MIC (S. maltophilia ICB7569): 8 µg/mL
"CC1(C)[C@H](NC(=O)/C(=N\OCCOc2ccnc(C(=N)N)c2)c2csc(N)n2)C(=O)N1OS(=O)(=O)O [Example 15, (2Z)-2-(2-Amino-1,3-thiazol-4-yl)-2-({2-[(2-carbamimidoylpyridin-4-yl)oxy]ethoxy}imino)-N-[(3S)-2,2-dimethyl-4-oxo-1-(sulfooxy)azetidin-3-yl]ethanamide]",–,–,–,8 µg/mL,8 µg/mL,2 µg/mL,–,–,–,–,–,–,–,–,–,–,2 µg/mL,≤ 0.063 µg/mL,≤ 0.063 µg/mL,4 µg/mL,MIC (P. aeruginosa PAO1): 8 µg/mL; MIC (M. catarrhalis ICB489): ≤ 0.063 µg/mL; MIC (S. pneumoniae 113): 2 µg/mL; MIC (strain 20): 0.5 µg/mL; MIC (C. freundii K21/3034): 0.5 µg/mL; MIC (strain 21): 0.5 µg/mL; MIC (E. coli J62): 1 µg/mL; MIC (E. coli ATCC25922): 0.5 µg/mL; MIC (C. perfringens DSM756): 0.5 µg/mL; MIC [2]: 8 µg/mL; MIC (strain 19): 0.5 µg/mL; MIC (K. pneumoniae 60): 1 µg/mL; MIC (E. cloacae 34654): 1 µg/mL; MIC (M. morganii 126/3048): 0.5 µg/mL
"CC1(C)[C@H](NC(=O)/C(=N\OCCOc2cc(C(=N)N)ccn2)c2csc(N)n2)C(=O)N1OS(=O)(=O)O [Example 22, (2Z)-2-(2-Amino-1,3-thiazol-4-yl)-2-({2-[(4-carbamimidoylpyridin-2-yl)oxy]ethoxy}imino)-N-[(3S)-2,2-dimethyl-4-oxo-1-(sulfooxy)azetidin-3-yl]ethanamide]",–,–,–,16 µg/mL,8 µg/mL,4 µg/mL,–,–,–,–,–,–,–,–,–,–,4 µg/mL,≤ 0.063 µg/mL,≤ 0.063 µg/mL,4 µg/mL,MIC (P. aeruginosa PAO1): 16 µg/mL; MIC (M. catarrhalis ICB489): 0.125 µg/mL; MIC (S. pneumoniae 113): 2 µg/mL; MIC (strain 20): 1 µg/mL; MIC (C. freundii K21/3034): 0.5 µg/mL; MIC (strain 21): 1 µg/mL; MIC (E. coli J62): 1 µg/mL; MIC (E. coli ATCC25922): 1 µg/mL; MIC (C. perfringens DSM756): 2 µg/mL; MIC [2]: 32 µg/mL; MIC (strain 19): 0.5 µg/mL; MIC (K. pneumoniae 60): 1 µg/mL; MIC (E. cloacae 34654): 1 µg/mL; MIC (M. morganii 126/3048): 1 µg/mL
"N=C(N)c1ccc(OCCO/N=C(\C(=O)NC2C(=O)N(OS(=O)(=O)O)C23CCCC3)c2csc(N)n2)cc1 (centres unmarked) [Example 16, (2Z)-2-(2-Amino-1,3-thiazol-4-yl)-2-{[2-(4-carbamimidoylphenoxy)ethoxy]imino}-N-[2-oxo-1-(sulfooxy)-1-azaspiro[3.4]oct-3-yl]ethanamide]",–,–,–,32 µg/mL,4 µg/mL,4 µg/mL,–,–,–,–,–,–,–,–,–,–,8 µg/mL,≤ 0.063 µg/mL,≤ 0.063 µg/mL,8 µg/mL,MIC (P. aeruginosa PAO1): 32 µg/mL; MIC (M. catarrhalis ICB489): 1 µg/mL; MIC (strain 20): 1 µg/mL; MIC (C. freundii K21/3034): 2 µg/mL; MIC (strain 21): 1 µg/mL; MIC (E. coli J62): 2 µg/mL; MIC (E. coli ATCC25922): 1 µg/mL; MIC (C. perfringens DSM756): 4 µg/mL; MIC [2]: 32 µg/mL; MIC (strain 19): 1 µg/mL; MIC (K. pneumoniae 60): 1 µg/mL; MIC (E. cloacae 34654): 1 µg/mL; MIC (M. morganii 126/3048): 0.5 µg/mL
"CC1(C)[C@H](NC(=O)/C(=N\OC(COc2ccc(C(=N)N)cc2)C(=O)O)c2csc(N)n2)C(=O)N1OS(=O)(=O)O (mixture of isomers) [Example 27B, (2S and 2R)-2-({[(1Z)-1-(2-Amino-1,3-thiazol-4-yl)-2-{[(3S)-2,2-dimethyl-4-oxo-1-(sulfo-oxy)azetidin-3-yl]amino}-2-oxoethylidene]amino}oxy)-3-(4-carbamimidoylphenoxy)-propanoic acid]",16 µg/mL,0.25 µg/mL,2 µg/mL,–,–,–,1 µg/mL,2 µg/mL,2 µg/mL,2 µg/mL,32 µg/mL,32 µg/mL,1 µg/mL,1 µg/mL,4 µg/mL,1 µg/mL,–,–,–,–,strain 8 MIC [1]: 16 µg/mL; strain 18 MIC (E. coli J62-TEM-3; strain 18): 8 µg/mL; strain 13 MIC (H. influenzae ATCC 49247): 0.5 µg/mL; strain 9 MIC (A. baumannii ATCC15308): 16 µg/mL; strain 11 MIC (S. aureus 133): 0.125 µg/mL; strain 10 MIC (S. maltophilia ICB7569): 8 µg/mL; strain 15 MIC (B. fragilis 6688): 32 µg/mL
"CC1(C)[C@H](NC(=O)/C(=N\OC(COc2ccc(C(=N)N)cc2)C(=O)O)c2csc(N)n2)C(=O)N1OS(=O)(=O)O (mixture of isomers) [Example 27A, (2S and 2R)-2-({[(1Z)-1-(2-Amino-1,3-thiazol-4-yl)-2-{[(3S)-2,2-dimethyl-4-oxo-1-(sulfo-oxy)azetidin-3-yl]amino}-2-oxoethylidene]amino}oxy)-3-(4-carbamimidoylphenoxy)-propanoic acid]",4 µg/mL,≦0.063 mg/L,0.25 µg/mL,–,8 µg/mL,–,0.25 µg/mL,0.25 µg/mL,0.25 µg/mL,0.25 µg/mL,4 µg/mL,4 µg/mL,0.25 µg/mL,0.125 µg/mL,0.25 µg/mL,0.125 µg/mL,–,0.5 µg/mL,≤ 0.063 µg/mL,4 µg/mL,strain 8 MIC [1]: 4 µg/mL; strain 9 MIC (A. baumannii ATCC15308): 4 µg/mL; strain 15 MIC (B. fragilis 6688): 8 µg/mL
